The source made the active and inactive calls. The rule behind the calls is not given here. Where only a bound is given, the exact number is not on record here.

For the first experiment, the system named is Schistosoma mansoni. The experiment can be described thus: Inhibition of Schistosoma mansoni recombinant NAD+ glycohydrolase expressed in Pichia pastoris at up to 100 uM by continuous fluorometric method.
Consider `CCN(CC)CCCC(C)Nc1ccnc2cc(Cl)ccc12` (configuration not stated), for which the result was inactive. What is called inhibition is the change of the read-out against control, counted positive when it falls. For `CN(C)CC(=O)Nc1ccc2[nH]c(=O)c3ccccc3c2c1`, the inhibition is less than 10%. On the same count and under the same terms, next, `Cc1ccc(C(=O)Nc2ccc(S(=O)(=O)O)c3cc(S(=O)(=O)O)cc(S(=O)(=O)O)c23)cc1NC(=O)c1cccc(NC(=O)Nc2cccc(C(=O)Nc3cc(C(=O)Nc4ccc(S(=O)(=O)O)c5cc(S(=O)(=O)O)cc(S(=O)(=O)O)c45)ccc3C)c2)c1`: less than 10%. On to `OC(c1cc(C(F)(F)F)nc2c(C(F)(F)F)cccc12)C1CCCCN1` (configuration not stated), for which the outcome was inactive. Consider `COc1cc(/C=C/C(=O)CC(=O)/C=C/c2ccc(O)c(OC)c2)ccc1O`, for which the inhibition was less than 10%.

Consider `O=C(C1CCCCC1)N1CC(=O)N2CCc3ccccc3C2C1` (configuration not stated), for which the inhibition is less than 10%. On to `O=C1NC(=O)c2cccc3cccc1c23`, for which the inhibition was less than 10%.

System in the next experiment: not listed separately
Briefly: Inhibition of Schistosoma mansoni recombinant NAD+ glycohydrolase expressed in Pichia pastoris by continuous fluorometric method.
In general, IC50 refers to the concentration that gives 50% inhibition. In the case of `O=c1c(O)c(-c2ccc(O)c(O)c2)oc2cc(O)cc(O)c12` [QUERCETIN], the IC50 was determined as 3.9 µM. With `Oc1ccc(/C=C/c2cc(O)cc(O)c2)cc1` [RESVERATROL], the IC50 was more than 100 µM.

As to `Oc1ccc(-c2[o+]c3cc(O)cc(O)c3cc2O)cc1` [PELARGONIDIN], the IC50 was determined as 4.4 µM. On the same count and under the same terms, next, `O=c1c(O)c(-c2cc(O)c(O)c(O)c2)oc2cc(O)cc(O)c12` [MYRICETIN]: 22 µM; `Oc1cc(O)cc(/C=C/c2ccc(O)c(O)c2)c1` [PICEATANNOL]: more than 100 µM; `Oc1ccc(-c2[o+]c3cc(O)c(O)c(O)c3cc2O)cc1O` [QUERCETAGETINIDIN]: 6.1 µM. On the same count and under the same terms, to `O=c1cc(-c2ccc(O)c(O)c2)oc2cc(O)cc(O)c12` [LUTEOLIN] belongs 8.4 µM; to `Oc1cc(O)c2cc(O)c(-c3ccc(O)c(O)c3)[o+]c2c1` [CYANIDIN], 2.3 µM. Take `COc1ccc(-c2ccc3c(O)cc(O)cc3[o+]2)cc1O` [DIOSMETINIDIN]: the IC50 was determined as 9.9 µM.

On to `Oc1ccc2cc(O)c(-c3ccc(O)c(O)c3)[o+]c2c1` [FISETINIDIN], for which the IC50 turned out to be 6.4 µM. Still for that read-out and setting: next, `O=C1c2c(O)cc(O)cc2OC(c2ccc(O)c(O)c2)C1O` (configuration not stated) [TAXIFOLIN]: 19.5 µM; `COc1cc(-c2[o+]c3cc(O)cc(O)c3cc2O)cc(O)c1O` [PETUNIDIN]: 37.8 µM; `O=c1c(O)c(-c2ccc(O)c(O)c2)oc2cc(O)c(O)c(O)c12` [QUERCETAGETIN]: 1.3 µM. On to `Oc1cc(O)c2ccc(-c3ccc(O)c(O)c3)[o+]c2c1` [LUTEOLINIDIN], for which the IC50 is 5.9 µM. For `Oc1cc(O)c2cc(O)c(-c3cc(O)c(O)c(O)c3)[o+]c2c1` [DELPHINIDIN], the IC50 is 6 µM. `OC[C@H]1O[C@@H](Oc2cc3c(O)cc(O)cc3[o+]c2-c2ccc(O)c(O)c2)[C@H](O)[C@@H](O)[C@@H]1O` [KUROMANIN]: the IC50 worked out at 8.2 µM. For `Oc1cc(O)c2c(c1)OC(c1ccc(O)c(O)c1)C(O)C2` (configuration not stated) [CATECHIN], the IC50 was more than 100 µM.

Consider `COc1cc(-c2[o+]c3cc(O)cc(O)c3cc2O)cc(OC)c1O` [MALVIDIN], for which the IC50 was found to be 8 µM. For `O=c1c(O)c(-c2cc(O)c(O)c(O)c2)oc2cc(O)ccc12` [ROBINETIN], the IC50 is 5.8 µM.

Target in the next experiment: not listed separately
The experiment can be described thus: Competitive inhibition of Schistosoma mansoni recombinant NAD+ glycohydrolase expressed in Pichia pastoris by Michaelis-Menten equation analysis.
Usually Ki stands for the equilibrium dissociation constant of an inhibitor or competing ligand from its target. As for `Oc1cc(O)c2cc(O)c(-c3ccc(O)c(O)c3)[o+]c2c1` [CYANIDIN], the Ki worked out at 2.1 µM.

(Values after ChEMBL document CHEMBL1275373, “Identification by high-throughput screening of inhibitors of Schistosoma mansoni NAD(+) catabolizing enzyme” (Bioorg Med Chem, 2010).)
